In ChEMBL document CHEMBL3885881, “DrugMatrix”:

Species: Rattus norvegicus
Assay: DrugMatrix - Regimen: Daily Repeat
Type: toxicity, organism-based, Sprague-Dawley
Set-up: regimen Daily Repeat, gender Male, age 6-8 weeks
Details: in vivo, po, route oral GAVAGE, […]; for BASOPHIL / EOSINOPHIL / ERYTHROCYTE COUNT / HEMATOCRIT / HEMOGLOBIN / LEUKOCYTE COUNT / LYMPHOCYTE / MEAN CORPUSCULAR HEMOGLOBIN / MEAN CORPUSCULAR HEMOGLOBIN CONCENTRATION / MEAN CORPUSCULAR VOLUME / MONOCYTE / NEUTROPHIL / PLATELET COUNT: tissue Blood; for ALANINE AMINOTRANSFERASE / ALBUMIN / ALKALINE PHOSPHATASE / ASPARTATE AMINOTRANSFERASE / BLOOD UREA NITROGEN / CARBON DIOXIDE / CHLORIDE / CHOLESTEROL / CREATINE PHOSPHOKINASE / CREATININE / GLUCOSE / LACTATE DEHYDROGENASE / LIPASE / PHOSPHORUS / POTASSIUM / SODIUM / TOTAL BILIRUBIN / TOTAL PROTEIN / URIC ACID: tissue Plasma
[1] = 0 mg/kg, 72 h, dose level Control, time 3 day
[2] = 0 mg/kg, 120 h, dose level Control, time 5 day
[3] = 0 mg/kg, dose level Control, time 14 day
[4] = 24 mg/kg, 72 h, dose level High, time 3 day
[5] = 24 mg/kg, 120 h, dose level High, time 5 day
[6] = 24 mg/kg, dose level High, time 14 day

## c1ccoc1 [FURAN]
[1]
  BASOPHIL: 0.55%
  EOSINOPHIL: 0.55%
  ERYTHROCYTE COUNT: 6.6 x10E6/uL
  HEMATOCRIT: 43.77%
  HEMOGLOBIN: 14.12 G/DL
  LEUKOCYTE COUNT: 10.15 x10E3/uL
  LYMPHOCYTE: 87.95%
  MEAN CORPUSCULAR HEMOGLOBIN: 21.4 pg
  MEAN CORPUSCULAR HEMOGLOBIN CONCENTRATION: 32.23 G/DL
  MEAN CORPUSCULAR VOLUME: 66.33 fL
  MONOCYTE: 1.7%
  NEUTROPHIL: 8.05%
  PLATELET COUNT: 1122 x10E3/uL
  ALANINE AMINOTRANSFERASE: 49.33 u/L
  ALBUMIN: 4.08 G/DL
  ALKALINE PHOSPHATASE: 565 u/L
  ASPARTATE AMINOTRANSFERASE: 81.5 u/L
  BLOOD UREA NITROGEN: 14.33 mg/dL
  CARBON DIOXIDE: 27.17 mmol/L
  CHLORIDE: 106.83 MEQ/L
  CHOLESTEROL: 74.83 mg/dL
  CREATINE PHOSPHOKINASE: 342.33 u/L
  CREATININE: 0.4 mg/dL
  GLUCOSE: 169.5 mg/dL
  LACTATE DEHYDROGENASE: 165.17 u/L
  LIPASE: 13.67 u/L
  PHOSPHORUS: 12.42 mg/dL
  POTASSIUM: 6.7 MEQ/L
  SODIUM: 151.17 MEQ/L
  TOTAL BILIRUBIN: 0.4 mg/dL
  TOTAL PROTEIN: 6.13 G/DL
  URIC ACID: 1.62 mg/dL
[2]
  BASOPHIL: 0.87%
  EOSINOPHIL: 0.53%
  ERYTHROCYTE COUNT: 6.86 x10E6/uL
  HEMATOCRIT: 45.15%
  HEMOGLOBIN: 14.42 G/DL
  LEUKOCYTE COUNT: 12.67 x10E3/uL
  LYMPHOCYTE: 87.1%
  MEAN CORPUSCULAR HEMOGLOBIN: 21.05 pg
  MEAN CORPUSCULAR HEMOGLOBIN CONCENTRATION: 32 G/DL
  MEAN CORPUSCULAR VOLUME: 65.75 fL
  MONOCYTE: 1.9%
  NEUTROPHIL: 8.25%
  PLATELET COUNT: 1111 x10E3/uL
  ALANINE AMINOTRANSFERASE: 46.17 u/L
  ALBUMIN: 4.15 G/DL
  ALKALINE PHOSPHATASE: 447.17 u/L
  ASPARTATE AMINOTRANSFERASE: 65.67 u/L
  BLOOD UREA NITROGEN: 13.17 mg/dL
  CARBON DIOXIDE: 29 mmol/L
  CHLORIDE: 104.5 MEQ/L
  CHOLESTEROL: 72 mg/dL
  CREATINE PHOSPHOKINASE: 368.5 u/L
  CREATININE: 0.3 mg/dL
  GLUCOSE: 162.83 mg/dL
  LACTATE DEHYDROGENASE: 99.33 u/L
  LIPASE: 12.67 u/L
  PHOSPHORUS: 12.65 mg/dL
  POTASSIUM: 6.52 MEQ/L
  SODIUM: 148.67 MEQ/L
  TOTAL BILIRUBIN: 0.38 mg/dL
  TOTAL PROTEIN: 6.15 G/DL
  URIC ACID: 1.9 mg/dL
[3]
  BASOPHIL: 0.58%
  EOSINOPHIL: 0.45%
  ERYTHROCYTE COUNT: 7.51 x10E6/uL
  HEMATOCRIT: 46.87%
  HEMOGLOBIN: 15.2 G/DL
  LEUKOCYTE COUNT: 14.2 x10E3/uL
  LYMPHOCYTE: 80.78%
  MEAN CORPUSCULAR HEMOGLOBIN: 20.25 pg
  MEAN CORPUSCULAR HEMOGLOBIN CONCENTRATION: 32.42 G/DL
  MEAN CORPUSCULAR VOLUME: 62.45 fL
  MONOCYTE: 1.95%
  NEUTROPHIL: 13.97%
  PLATELET COUNT: 1115.17 x10E3/uL
  ALANINE AMINOTRANSFERASE: 32.5 u/L
  ALBUMIN: 4.22 G/DL
  ALKALINE PHOSPHATASE: 349.5 u/L
  ASPARTATE AMINOTRANSFERASE: 59.67 u/L
  BLOOD UREA NITROGEN: 14.83 mg/dL
  CARBON DIOXIDE: 30.33 mmol/L
  CHLORIDE: 102.17 MEQ/L
  CHOLESTEROL: 76 mg/dL
  CREATINE PHOSPHOKINASE: 163.17 u/L
  CREATININE: 0.37 mg/dL
  GLUCOSE: 157.33 mg/dL
  LACTATE DEHYDROGENASE: 93 u/L
  LIPASE: 10.4 u/L
  PHOSPHORUS: 11.93 mg/dL
  POTASSIUM: 6.55 MEQ/L
  SODIUM: 147.5 MEQ/L
  TOTAL BILIRUBIN: 0.4 mg/dL
  TOTAL PROTEIN: 6.45 G/DL
  URIC ACID: 0.7 mg/dL
[4]
  BASOPHIL: 0.77%
  EOSINOPHIL: 0.73%
  ERYTHROCYTE COUNT: 7.35 x10E6/uL
  HEMATOCRIT: 48.6%
  HEMOGLOBIN: 15.9 G/DL
  LEUKOCYTE COUNT: 11.15 x10E3/uL
  LYMPHOCYTE: 82.1%
  MEAN CORPUSCULAR HEMOGLOBIN: 21.57 pg
  MEAN CORPUSCULAR HEMOGLOBIN CONCENTRATION: 32.67 G/DL
  MEAN CORPUSCULAR VOLUME: 66.1 fL
  MONOCYTE: 3.27%
  NEUTROPHIL: 11.37%
  PLATELET COUNT: 1059 x10E3/uL
  ALANINE AMINOTRANSFERASE: 358 u/L
  ALBUMIN: 3.77 G/DL
  ALKALINE PHOSPHATASE: 771.67 u/L
  ASPARTATE AMINOTRANSFERASE: 316 u/L
  BLOOD UREA NITROGEN: 12.33 mg/dL
  CARBON DIOXIDE: 25 mmol/L
  CHLORIDE: 105.67 MEQ/L
  CHOLESTEROL: 87.67 mg/dL
  CREATINE PHOSPHOKINASE: 333.33 u/L
  CREATININE: 0.57 mg/dL
  GLUCOSE: 150.67 mg/dL
  LACTATE DEHYDROGENASE: 707 u/L
  LIPASE: 11.67 u/L
  PHOSPHORUS: 13.97 mg/dL
  POTASSIUM: 6.6 MEQ/L
  SODIUM: 149.33 MEQ/L
  TOTAL BILIRUBIN: 0.93 mg/dL
  TOTAL PROTEIN: 5.4 G/DL
  URIC ACID: 2.27 mg/dL
[5]
  BASOPHIL: 0.57%
  EOSINOPHIL: 0.6%
  ERYTHROCYTE COUNT: 7.68 x10E6/uL
  HEMATOCRIT: 50.57%
  HEMOGLOBIN: 16.23 G/DL
  LEUKOCYTE COUNT: 17.47 x10E3/uL
  LYMPHOCYTE: 82.63%
  MEAN CORPUSCULAR HEMOGLOBIN: 21.1 pg
  MEAN CORPUSCULAR HEMOGLOBIN CONCENTRATION: 32.1 G/DL
  MEAN CORPUSCULAR VOLUME: 65.87 fL
  MONOCYTE: 2.43%
  NEUTROPHIL: 12.47%
  PLATELET COUNT: 1240.33 x10E3/uL
  ALANINE AMINOTRANSFERASE: 114.33 u/L
  ALBUMIN: 3.83 G/DL
  ALKALINE PHOSPHATASE: 986 u/L
  ASPARTATE AMINOTRANSFERASE: 240.67 u/L
  BLOOD UREA NITROGEN: 12.33 mg/dL
  CARBON DIOXIDE: 30.67 mmol/L
  CHLORIDE: 101.67 MEQ/L
  CHOLESTEROL: 93.33 mg/dL
  CREATINE PHOSPHOKINASE: 798.67 u/L
  CREATININE: 0.37 mg/dL
  GLUCOSE: 143 mg/dL
  LACTATE DEHYDROGENASE: 233.67 u/L
  LIPASE: 14.67 u/L
  PHOSPHORUS: 12.43 mg/dL
  POTASSIUM: 7.1 MEQ/L
  SODIUM: 148.33 MEQ/L
  TOTAL BILIRUBIN: 0.87 mg/dL
  TOTAL PROTEIN: 5.63 G/DL
  URIC ACID: 2.27 mg/dL
[6]
  BASOPHIL: 0.54%
  EOSINOPHIL: 0.64%
  ERYTHROCYTE COUNT: 8.42 x10E6/uL
  HEMATOCRIT: 50.4%
  HEMOGLOBIN: 16.6 G/DL
  LEUKOCYTE COUNT: 14.86 x10E3/uL
  LYMPHOCYTE: 74.12%
  MEAN CORPUSCULAR HEMOGLOBIN: 19.76 pg
  MEAN CORPUSCULAR HEMOGLOBIN CONCENTRATION: 32.96 G/DL
  MEAN CORPUSCULAR VOLUME: 59.9 fL
  MONOCYTE: 2.54%
  NEUTROPHIL: 20.58%
  PLATELET COUNT: 1423.6 x10E3/uL
  ALANINE AMINOTRANSFERASE: 56 u/L
  ALBUMIN: 4.28 G/DL
  ALKALINE PHOSPHATASE: 706.2 u/L
  ASPARTATE AMINOTRANSFERASE: 86.6 u/L
  BLOOD UREA NITROGEN: 13.2 mg/dL
  CARBON DIOXIDE: 27 mmol/L
  CHLORIDE: 104 MEQ/L
  CHOLESTEROL: 106.8 mg/dL
  CREATINE PHOSPHOKINASE: 224.2 u/L
  CREATININE: 0.42 mg/dL
  GLUCOSE: 136.6 mg/dL
  LACTATE DEHYDROGENASE: 113.8 u/L
  LIPASE: 17.2 u/L
  PHOSPHORUS: 10.26 mg/dL
  POTASSIUM: 5.84 MEQ/L
  SODIUM: 148.4 MEQ/L
  TOTAL BILIRUBIN: 0.72 mg/dL
  TOTAL PROTEIN: 6.34 G/DL
  URIC ACID: 1.26 mg/dL
